According to US9145411B2, “Substituted amino-pyrimidine derivatives” (Asana Biosciences, LLC, priority 2012, dated 2015):

Legend:
[1] = tested on: pAKT (T308); experiment: In vivo PK/PD study, U87MG tumor xenograft, pAKT (T308); settings: U87MG tumor-bearing xenograft mice, 50 mg/kg po
Method: (§1) PC3 cells are cultured at 37° C. in a 5% CO2 incubator using Hams F12 K medium. Ten million (10^7) cells are injected subcutaneously to the right flank region of athymic male mice (Harlan, age: 6-7 weeks, weight: about 20 g). Tumor bearing mice are randomized when the tumor volume reaches about 250 mm^3 and three mice are used per each time point. Test compounds of formula (I) are typically formulated in 40% HPCD in 1×PBS, pH 7.4 or in 10% Ethanol/40% Solutol/50% 50 mM aq. methanesulfonic acid and dosed orally at 50 mg/kg single dose (dose volume—10 mL/kg). Plasma and tumor samples are collected at 0 (vehicle control animals), 1, 4 and 24 hours post dosing. Blood is drawn (retro orbital) to a tube containing 0.2% EDTA for plasma collection. […] Tumor and plasma drug concentrations are measured for PK analysis using LC-MS.
(§2) Snap frozen tumor samples are pulverized in a mortar (Belart) containing liquid nitrogen and tumor powder is stored at −80° C. until analysis. […] The detection for pAKT is based on chemiluminescence and pS6RP is based on absorbance. […]
(§3) In vivo pharmacokinetic/pharmacodynamic (PK/PD) studies were carried out in a similar manner using U87MG tumor cells (glioma cancer cell line with a PTEN null mutation) and the corresponding tumor-bearing xenograft mice, and compounds of the invention were determined to be active in this assay. […]

[2] = tested on: pAKT (S473); experiment: In vivo PK/PD study, U87MG tumor xenograft, pAKT (S473); settings: U87MG tumor-bearing xenograft mice, 50 mg/kg po
Method: as §1, §2, §3

[3] = target: PI3 kinase isoform γ (Homo sapiens, UniProt P48736); experiment: PI3 Kinase TR-FRET assay, isoform γ; format: biochemical; settings: read-out: inhibition of PI3 kinase isoform γ, IC50
Chain of PI3 kinase isoform γ (P48736 whole entry, the tested form may be a part, canonical isoform): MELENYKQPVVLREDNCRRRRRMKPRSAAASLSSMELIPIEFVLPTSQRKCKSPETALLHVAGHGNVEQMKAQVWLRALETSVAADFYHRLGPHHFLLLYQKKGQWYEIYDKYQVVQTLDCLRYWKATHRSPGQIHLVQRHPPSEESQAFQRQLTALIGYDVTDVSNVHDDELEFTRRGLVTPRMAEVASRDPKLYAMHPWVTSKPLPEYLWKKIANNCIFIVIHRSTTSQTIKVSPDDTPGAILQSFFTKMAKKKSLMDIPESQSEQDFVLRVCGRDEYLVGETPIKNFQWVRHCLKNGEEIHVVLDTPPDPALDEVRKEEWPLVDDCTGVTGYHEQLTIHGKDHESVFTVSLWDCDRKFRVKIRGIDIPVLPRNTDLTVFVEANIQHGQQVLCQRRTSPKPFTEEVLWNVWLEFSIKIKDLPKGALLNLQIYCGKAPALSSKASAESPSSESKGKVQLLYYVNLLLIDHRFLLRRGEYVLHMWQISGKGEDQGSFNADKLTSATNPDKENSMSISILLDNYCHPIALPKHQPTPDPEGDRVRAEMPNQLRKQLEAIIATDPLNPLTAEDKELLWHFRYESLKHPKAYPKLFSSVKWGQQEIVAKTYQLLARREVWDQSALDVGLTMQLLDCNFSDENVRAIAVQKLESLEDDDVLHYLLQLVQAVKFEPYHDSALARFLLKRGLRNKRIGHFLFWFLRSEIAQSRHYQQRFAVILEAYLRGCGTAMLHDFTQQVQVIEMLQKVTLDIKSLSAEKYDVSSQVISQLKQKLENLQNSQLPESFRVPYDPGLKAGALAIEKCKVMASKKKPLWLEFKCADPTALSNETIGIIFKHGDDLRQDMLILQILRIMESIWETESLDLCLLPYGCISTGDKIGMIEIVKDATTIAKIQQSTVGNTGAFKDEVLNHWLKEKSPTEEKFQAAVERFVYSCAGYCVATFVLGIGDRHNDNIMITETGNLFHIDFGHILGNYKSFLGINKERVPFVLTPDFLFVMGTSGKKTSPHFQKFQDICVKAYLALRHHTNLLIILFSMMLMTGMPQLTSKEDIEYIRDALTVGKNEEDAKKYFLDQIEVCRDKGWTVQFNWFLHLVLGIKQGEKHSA
Method: (§4) The ability of compounds of the invention to inhibit PI3K activity was determined in a homogeneous TR-FRET assay using a PI3K assay kit (Millipore, USA; cat #33-016) according to manufacturer's instructions. PI3-Kinases (isoforms α, β, γ and δ) catalyze the phosphorylation of phosphatidylinositol, PIP2 to PIP3 in the presence of ATP and Mg^2+. The PIP3 product is detected by displacement of biotin-PIP3 from an energy transfer complex consisting of Europium labeled anti-GST monoclonal antibody, a GST-tagged PH domain, biotinylated PIP3 and Streptavidin-APC. Excitation of Europium in the complex results in an energy transfer to the APC and a fluorescence emission at 665 nm. The PIP3 product displaces biotin-PIP3 from the complex resulting in a loss of energy transfer and thus a decrease in signal.
(§5) To test for the ability of compounds to inhibit the activity of PI3Kα (wild-type), exemplary compounds of formula (I) were dissolved in DMSO and directly distributed into 384-well plates at a volume of 0.5 μL. 14.5 μL of P110/P85α/PIP2 mixture in buffer (obtained from the Millipore kit) containing MgCl2 (40 mM) and DTT (5 mM) was added to compound wells and incubated for 60 minutes at room temperature. P110/P85α was expressed in SF9 insect cells and purified nickel column extraction. Five ng of wild-type P110/P85α was used in the assay. The kinase reaction was started by the addition of ATP. The assay concentrations of both PIP2 and ATP were 10 μM. The reaction mixture was incubated for 30 minutes at room temperature and was terminated by the addition of stop mix and detection mix. Fluorescence was measured at 615 and 665 nm upon excitation at 340 nm in a Victor™ V5 fluorometer (Perkin Elmer, USA). The fluorescence emission ratio at 665 to 615 nm, proportional to the kinase activity, was plotted against the compound concentration to generate dose-response curves and IC50 values were determined using GraphPad Prism® 5 software.
The activity of PI3 kinase isoforms β, γ and δ were assayed in a similar manner to the assay protocol described above for PI3Kα, by substituting the appropriate p110/p85 isoform for the p110α/p85α. Compounds of formula (I) caused inhibition of PI3 kinase isoforms β, γ and δ as determined by these assays. For example, the compounds of Examples 3 and 21 each caused inhibition of PI3 kinase isoform β with IC50 values<500 nM. The compounds of Examples 3, 7, 21, 47, 48 and 49 each caused inhibition of PI3 kinase isoform γ with IC50 values<500 nM. The compounds of Example 3, 7, 47, 48, and 49 caused inhibition of PI3 kinase isoform δ with IC50 values<1 μM.

[4] = target: PI3Kα mutation H1047R (Homo sapiens, UniProt P42336, H1047R); experiment: PI3 Kinase TR-FRET assay, PI3Kα mutation H1047R; format: biochemical; settings: read-out: inhibition of PI3Kα mutation H1047R, IC50
Chain of PI3Kα mutation H1047R (P42336 whole entry H1047R): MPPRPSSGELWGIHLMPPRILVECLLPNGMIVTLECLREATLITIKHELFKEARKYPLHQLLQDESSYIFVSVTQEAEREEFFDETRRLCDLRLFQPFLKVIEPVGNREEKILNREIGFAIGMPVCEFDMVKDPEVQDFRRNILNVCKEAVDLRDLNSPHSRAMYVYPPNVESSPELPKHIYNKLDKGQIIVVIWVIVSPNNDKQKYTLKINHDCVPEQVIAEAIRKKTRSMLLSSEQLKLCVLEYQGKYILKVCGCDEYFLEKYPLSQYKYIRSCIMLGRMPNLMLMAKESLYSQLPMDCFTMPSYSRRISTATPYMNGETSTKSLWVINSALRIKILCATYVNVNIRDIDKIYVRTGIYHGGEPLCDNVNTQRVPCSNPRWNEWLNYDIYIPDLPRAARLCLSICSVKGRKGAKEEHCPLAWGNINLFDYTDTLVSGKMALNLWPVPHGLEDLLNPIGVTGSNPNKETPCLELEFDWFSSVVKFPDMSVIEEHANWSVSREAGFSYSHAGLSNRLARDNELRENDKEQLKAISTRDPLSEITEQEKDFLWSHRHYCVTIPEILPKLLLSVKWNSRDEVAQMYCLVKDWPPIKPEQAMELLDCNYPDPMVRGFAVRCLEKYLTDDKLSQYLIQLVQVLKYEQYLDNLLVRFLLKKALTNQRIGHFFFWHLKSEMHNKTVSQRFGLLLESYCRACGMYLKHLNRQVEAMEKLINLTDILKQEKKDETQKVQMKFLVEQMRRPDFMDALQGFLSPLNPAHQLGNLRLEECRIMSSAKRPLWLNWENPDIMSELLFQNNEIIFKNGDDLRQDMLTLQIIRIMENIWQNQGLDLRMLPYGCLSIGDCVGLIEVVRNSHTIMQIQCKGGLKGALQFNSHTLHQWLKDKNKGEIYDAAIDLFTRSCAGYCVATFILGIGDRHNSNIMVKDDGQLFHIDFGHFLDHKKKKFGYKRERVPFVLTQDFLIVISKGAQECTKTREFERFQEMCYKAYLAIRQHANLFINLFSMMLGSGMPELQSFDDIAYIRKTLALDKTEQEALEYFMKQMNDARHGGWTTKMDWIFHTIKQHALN
Chain of PI3Kα mutation H1047R (P27986 whole entry partner): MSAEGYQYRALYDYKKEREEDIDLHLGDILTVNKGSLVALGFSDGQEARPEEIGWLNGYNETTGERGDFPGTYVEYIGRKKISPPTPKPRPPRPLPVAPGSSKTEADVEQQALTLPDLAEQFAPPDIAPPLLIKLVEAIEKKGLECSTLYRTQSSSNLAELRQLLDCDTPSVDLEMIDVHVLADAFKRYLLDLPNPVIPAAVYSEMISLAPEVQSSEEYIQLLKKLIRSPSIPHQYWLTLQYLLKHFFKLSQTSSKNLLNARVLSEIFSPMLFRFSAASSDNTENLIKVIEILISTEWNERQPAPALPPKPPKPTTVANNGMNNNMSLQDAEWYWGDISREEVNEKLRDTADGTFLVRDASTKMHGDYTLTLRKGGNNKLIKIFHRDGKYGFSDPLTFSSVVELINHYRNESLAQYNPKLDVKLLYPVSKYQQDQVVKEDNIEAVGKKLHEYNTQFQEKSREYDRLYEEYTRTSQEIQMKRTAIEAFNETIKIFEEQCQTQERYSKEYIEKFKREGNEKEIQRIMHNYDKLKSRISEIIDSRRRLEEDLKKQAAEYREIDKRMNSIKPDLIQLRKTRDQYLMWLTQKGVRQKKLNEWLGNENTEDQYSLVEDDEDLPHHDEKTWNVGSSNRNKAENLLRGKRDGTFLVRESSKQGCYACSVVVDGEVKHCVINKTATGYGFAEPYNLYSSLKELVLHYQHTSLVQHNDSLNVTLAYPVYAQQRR
Method: as §4, §5
The activity of PI3Kα mutations H1047R and E545K were assayed in a similar manner to the assay protocol described above for PI3Kα (wild type). The compounds of formula (I) caused inhibition of PI3Kα mutations H1047R (a mutation associated with breast and gastric cancers) and E545K (a mutation associated with colorectal tumors, glioblastomas, gastric cancers, breast cancers, and lung cancers). For example, each of the compounds of Example 3, 7, 21, 47, 48 and 49 caused inhibition of each of the PI3Kα mutations H1047R and E545K with IC50 values<50 nM.

IC50 [3] [nM]	IC50 [4] [nM]	Compound	suppression of pAKT (T308) [1]	suppression of pAKT (S473) [2]
< 500	< 50	CC(=O)Nc1cccc(-c2cnc3c(N4CCOCC4)nc(-c4cnc(N)nc4)nc3c2)c1 [Example 3, N-(3-(2-(2-Aminopyrimidin-5-yl)-4-morpholinopyrido[3,2-d]pyrimidin-7-yl)-phenyl)acetamide]	suppression	suppression
< 500	< 50	Nc1ncc(-c2nc(N3CCOCC3)c3ncc(-c4cccc(NC(=O)C5CC5)c4)cc3n2)cn1 [Example 7, N-(3-(2-(2-Aminopyrimidin-5-yl)-4-morpholinopyrido[3,2-d]pyrimidin-7-yl)-phenyl)cyclopropanecarboxamide]	–	–
–	–	N#CC1(C(=O)Nc2cccc(-c3cnc4c(N5CCOCC5)nc(-c5cnc(N)nc5)nc4c3)c2)CC1 [Example 61, N-(3-(2-(2-amino-pyrimidin-5-yl)-4-morpholinopyrido[3,2-d]pyrimidin-7-yl)phenyl)-1-cyanocyclopropane-carboxamide]	suppression	suppression
